Experimental data from patent publication US7932290B2, “Method for the treatment of metabolic disorders” (Wellstat Biologics Corporation, priority 2003, dated 2011).
One block for each compound: values may come before it.

What was measured:
db/db mice [1] = experiment: Antidiabetic effects in db/db mice, Example B (2 weeks daily oral dosing); type: in vivo, mouse
Source text: (§1) db/db mice have a defect in leptin signaling, leading to hyperphagia, obesity and diabetes. Moreover, unlike ob/ob mice on a C57BL/6J background, db/db mice on a C57BL/KS background undergo failure of their insulin-producing pancreatic islet cells, resulting in progression from hyperinsulinemia (associated with peripheral insulin resistance) to hypoinsulinemic diabetes.
(§2) Male obese (db/db homozygote) C57BL/Ksola mice approximately 8 weeks of age, were obtained from Jackson Labs (Bar Harbor, Me.) and randomly assigned into groups of 5-7 animals such that the body weights (50-55 g) and serum glucose levels (≧300 mg/dl in fed state) were similar between groups; male lean (db/+heterozygote) mice served as cohort controls. A minimum of 7 days was allowed for adaptation after arrival. All animals were maintained under controlled temperature (23° C.), relative humidity (50±5%) and light (7:00-19:00), and allowed free access to standard chow (Formulab Diet 5008, Quality Lab Products, Elkridge, Md.) and water.
Treatment cohorts were given daily oral doses of Vehicle (1% hydroxypropylmethylcellulose), Compounds BI, CE, BT, BV, […] or Fenofibrate for 2 weeks. At the end of the treatment period 100 μl of venous blood was withdrawn in a heparinized capillary tube from the retro-orbital sinus of db/db mice for serum chemistry analysis.

[2] = biological target: T1, Human PPARα LBD fusion protein (Homo sapiens, UniProt Q07869); experiment: Transcription activation potential, GAL4 luciferase reporter in C3A cells; type: cell-based
T1 construct: a.a; 167-468)
T1 sequence (Q07869 167-468): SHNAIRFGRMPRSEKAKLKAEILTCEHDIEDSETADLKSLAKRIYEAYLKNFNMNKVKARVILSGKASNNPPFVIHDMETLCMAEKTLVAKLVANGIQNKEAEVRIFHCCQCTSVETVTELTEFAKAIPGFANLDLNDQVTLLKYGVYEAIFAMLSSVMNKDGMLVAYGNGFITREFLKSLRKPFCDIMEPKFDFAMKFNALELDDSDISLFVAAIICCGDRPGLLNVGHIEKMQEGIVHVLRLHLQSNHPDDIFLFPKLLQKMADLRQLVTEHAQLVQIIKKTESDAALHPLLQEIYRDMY
Method: (§3) Cells were seeded in 24 well plates the day prior to transfection at 5×10^4−2×10^5 cells/well, depending upon cell type. Cells were transfected using Lipofectamine 2000 reagent from Invitrogen. A total of 0.8 μg DNA/well was added to 50 μL of Optimem Reduced Serum media (serum free; Gibco). Lipofectamine 2000 was added (2.5 μL/well) to another tube containing 50 μL of Optimem media. Plasmid DNA was added at a ratio of 4:3 (reporter:activator); where appropriate, salmon sperm DNA was substituted for activator expressing plasmid. The reporter plasmid used was pFR-Luc, which has the firefly luciferase gene under the control of a GAL4 UAS ([…]) containing promoter. The activator expressing plasmids contain yeast GAL4 DNA binding domain (dbd) fusion of either human PPARα ligand binding domain (LBD; a.a. 167-468) or human PPARγ LBD (a.a. 176-479). DNA constructs containing the mouse PPARα or PPARγ LBD fused to the GAL4 DNA binding domain were also used. The two solutions were incubated at room temperature for 5 min, and then combined. The combined solution was incubated at room temperature for approximately 30 min. Cells were washed once with PBS, and 100 μL of transfection mix added to each well. Plates were incubated at 37° C. in a 5% CO2 incubator for 4.5 hr, followed by aspiration of the transfection mix, with plates refed using EMEM complete media (supplemented with 10% FBS, 1× Glutamine). 24 hr post-transfection, plates were treated with the appropriate compounds in EMEM complete media, followed by washing once with PBS and addition of 100 μL 1× reporter lysis buffer/well (Promega) 24 hr after treatment. Plates went through one freeze/thaw cycle prior to analysis. Approximately 10 μL of lysate was added to 100 μL of firefly luciferase substrate, mixed by pipetting, and analyzed on a luminometer for 10 s using the integration function (relative luciferase units/RLU) or on a Microbeta Trilux (luciferase counts per second/LCPS). Each treatment was performed in triplicate, and in multiple, separate experiments.

[3] = biological target: T2, Mouse PPARα LBD fusion protein (Mus musculus, UniProt P23204); experiment: as above; type: cell-based; settings: Table 20a
T2 sequence (P23204 239-466): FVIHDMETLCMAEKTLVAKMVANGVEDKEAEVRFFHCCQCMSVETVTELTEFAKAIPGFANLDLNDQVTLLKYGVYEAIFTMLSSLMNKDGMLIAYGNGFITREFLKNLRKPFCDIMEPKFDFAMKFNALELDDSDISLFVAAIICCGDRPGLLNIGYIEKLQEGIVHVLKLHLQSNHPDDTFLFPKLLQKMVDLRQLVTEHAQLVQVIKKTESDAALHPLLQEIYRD
Method: as §3

[4] = tested on: Human PPARγ LBD fusion protein; experiment: as above; type: cell-based
Method: (§4) Cells were seeded in 24 well plates the day prior to transfection at 5×10^4−2×10^5 cells/well, depending upon cell type. Cells were transfected using Lipofectamine 2000 reagent from Invitrogen. A total of 0.8 μg DNA/well was added to 50 μL of Optimem Reduced Serum media (serum free; Gibco). Lipofectamine 2000 was added (2.5 μL/well) to another tube containing 50 μL of Optimem media. Plasmid DNA was added at a ratio of 4:3 (reporter:activator); where appropriate, salmon sperm DNA was substituted for activator expressing plasmid. […] DNA constructs containing the mouse PPARα or PPARγ LBD fused to the GAL4 DNA binding domain were also used. The two solutions were incubated at room temperature for 5 min, and then combined. The combined solution was incubated at room temperature for approximately 30 min. Cells were washed once with PBS, and 100 μL of transfection mix added to each well. Plates were incubated at 37° C. in a 5% CO2 incubator for 4.5 hr, followed by aspiration of the transfection mix, with plates refed using EMEM complete media (supplemented with 10% FBS, 1× Glutamine). 24 hr post-transfection, plates were treated with the appropriate compounds in EMEM complete media, followed by washing once with PBS and addition of 100 μL 1× reporter lysis buffer/well (Promega) 24 hr after treatment. Plates went through one freeze/thaw cycle prior to analysis. Approximately 10 μL of lysate was added to 100 μL of firefly luciferase substrate, mixed by pipetting, and analyzed on a luminometer for 10 s using the integration function (relative luciferase units/RLU) or on a Microbeta Trilux (luciferase counts per second/LCPS). Each treatment was performed in triplicate, and in multiple, separate experiments.

[5] = biological target: T3, Mouse PPARγ LBD fusion protein (Mus musculus, UniProt P37238); experiment: as above; type: cell-based; settings: Table 20b
T3 sequence (P37238 238-503): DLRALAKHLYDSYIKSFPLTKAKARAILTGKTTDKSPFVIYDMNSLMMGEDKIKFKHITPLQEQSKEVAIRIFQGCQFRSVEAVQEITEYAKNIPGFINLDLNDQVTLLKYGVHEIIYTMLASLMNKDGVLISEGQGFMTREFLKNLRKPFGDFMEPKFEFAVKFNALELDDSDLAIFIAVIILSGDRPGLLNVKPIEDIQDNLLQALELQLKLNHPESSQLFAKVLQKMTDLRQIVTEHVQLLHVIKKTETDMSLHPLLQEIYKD
Method: as §4

db/db mice [6] = experiment: Antidiabetic effects in db/db mice, Example C (17 days daily oral dosing); type: in vivo, mouse; settings: 300 mg/kg daily oral
Source text: as §1, with “C57BL/Ksola (db/db) mice have” for “db/db mice have”, “on a C57BLKS background undergo” for “on a C57BL/KS background undergo”
as §2, with “sorted” for “randomly assigned”, “7 animals each” for “5-7”, “(40-45” for “(50-55”, “groups.” for “groups; male lean (db/+heterozygote) mice served as cohort controls.”
Treatment cohorts were given daily oral doses of vehicle (1% hydroxypropylmethylcellulose), Compounds BI, CF, CG, or phenylacetate for 17 days. At the end of the treatment period, blood samples were collected and serum glucose and triglycerides were measured.

[7] = serum, 2 weeks daily oral, dose not given in Table 17 (see Table 16)

transcription activation potential (luciferase) ± standard deviation ([2]; 1 μM): 14.7 ± 14.6 LCPS
transcription activation potential (luciferase) ± standard deviation ([2]; 3 μM): 13.2 ± 5.8 LCPS
transcription activation potential (luciferase) ± standard deviation ([2]; 10 μM): 26.2 ± 1.4 LCPS
transcription activation potential (luciferase) ± standard deviation ([2]; 30 μM): 10.67 ± 1.2 LCPS
transcription activation potential (luciferase) ± standard deviation ([2]; 100 μM): 6.33 ± 2.6 LCPS
transcription activation potential (luciferase) ± standard deviation ([2]; 200 μM): 12.8 ± 3.7 LCPS
transcription activation potential (luciferase) ± standard deviation ([3]; 1 μM): 9.47 ± 2.14 LCPS
transcription activation potential (luciferase) ± standard deviation ([3]; 3 μM): 9.57 ± 2.61 LCPS
transcription activation potential (luciferase) ± standard deviation ([3]; 10 μM): 1.17 ± 2.49 LCPS
transcription activation potential (luciferase) ± standard deviation ([3]; 30 μM): 7.4 ± 0.23 LCPS
transcription activation potential (luciferase) ± standard deviation ([3]; 100 μM): 6.13 ± 0.17 LCPS
transcription activation potential (luciferase) ± standard deviation ([3]; 200 μM): 8 ± 1.88 LCPS
transcription activation potential (luciferase) ± standard deviation ([5]; 1 μM test compound): 14.3 ± 4.5 LCPS
transcription activation potential (luciferase) ± standard deviation ([5]; 3 μM test compound): 13.43 ± 8.5 LCPS
transcription activation potential (luciferase) ± standard deviation ([5]; 10 μM test compound): 6.03 ± 3.75 LCPS
transcription activation potential (luciferase) ± standard deviation ([5]; 30 μM test compound): 9.6 ± 5.46 LCPS
transcription activation potential (luciferase) ± standard deviation ([5]; 100 μM test compound): 11.7 ± 11.7 LCPS
transcription activation potential (luciferase) ± standard deviation ([5]; 200 μM test compound): 10.5 ± 9.2 LCPS
Structure (SMILES): Cc1cccc(C)c1COc1cccc(CCCC(=O)O)c1 [CE, 4-(3-(2,6-Dimethylbenzyloxy)phenyl)butyric acid]
Glucose (% of Control) (db/db mice [1]; 93 mg/kg daily oral, 2 weeks): 54 ± 8 % of Control
Glucose (db/db mice [1]; nonfasting, 93 mg/kg daily oral, 2 weeks): 372.0 ± 53.8 mg/dL
Free Fatty Acids ± SEM (db/db mice [1]; [7]): 2867.4 ± 267.7 µM
Triglycerides ± SEM (db/db mice [1]; [7]): 132.0 ± 15.2 mg/dL
transcription activation potential (luciferase) ± standard deviation ([4]; 1 μM test compound): 60 ± 11.6 LCPS
transcription activation potential (luciferase) ± standard deviation ([4]; 3 μM test compound): 73.3 ± 30.9 LCPS
transcription activation potential (luciferase) ± standard deviation ([4]; 10 μM test compound): 57.3 ± 22.6 LCPS
transcription activation potential (luciferase) ± standard deviation ([4]; 30 μM test compound): 28.5 ± 16.4 LCPS
transcription activation potential (luciferase) ± standard deviation ([4]; 100 μM test compound): 37.7 ± 23.4 LCPS
transcription activation potential (luciferase) ± standard deviation ([4]; 200 μM test compound): 12.3 ± 4.8 LCPS

Structure (SMILES): O=C(O)Cc1ccccc1 [Phenylacetate, reference compound]
Glucose mg/dL (±SEM) (db/db mice [6]): 661 ± 64 mg/dL
Triglycerides (db/db mice [6]): 171 ± 33 mg/dL
